Reference: patent US20240327311A1, “Benzothiazole Derivative as a Urease Inhibitor for Fertilizer Application” (Sabic Agri-Nutrients Company, priority 2021, published 2024)
pIC50: −log10 of the molar value.

Tests used:
[1] = Thermogravimetric analysis and isothermal study under air; assay type: physicochemical; conditions: air atmosphere
[2] = similar conditions; U.S. Pat. No. 10,640,430; cited from earlier work
[3] = similar storage conditions; Soil Use and Management, 2008, 24, 246; cited from earlier work
urease = urease (Canavalia ensiformis, UniProt P07374); conditions: cited from earlier work
urease, sequence (P07374 whole entry, looked up): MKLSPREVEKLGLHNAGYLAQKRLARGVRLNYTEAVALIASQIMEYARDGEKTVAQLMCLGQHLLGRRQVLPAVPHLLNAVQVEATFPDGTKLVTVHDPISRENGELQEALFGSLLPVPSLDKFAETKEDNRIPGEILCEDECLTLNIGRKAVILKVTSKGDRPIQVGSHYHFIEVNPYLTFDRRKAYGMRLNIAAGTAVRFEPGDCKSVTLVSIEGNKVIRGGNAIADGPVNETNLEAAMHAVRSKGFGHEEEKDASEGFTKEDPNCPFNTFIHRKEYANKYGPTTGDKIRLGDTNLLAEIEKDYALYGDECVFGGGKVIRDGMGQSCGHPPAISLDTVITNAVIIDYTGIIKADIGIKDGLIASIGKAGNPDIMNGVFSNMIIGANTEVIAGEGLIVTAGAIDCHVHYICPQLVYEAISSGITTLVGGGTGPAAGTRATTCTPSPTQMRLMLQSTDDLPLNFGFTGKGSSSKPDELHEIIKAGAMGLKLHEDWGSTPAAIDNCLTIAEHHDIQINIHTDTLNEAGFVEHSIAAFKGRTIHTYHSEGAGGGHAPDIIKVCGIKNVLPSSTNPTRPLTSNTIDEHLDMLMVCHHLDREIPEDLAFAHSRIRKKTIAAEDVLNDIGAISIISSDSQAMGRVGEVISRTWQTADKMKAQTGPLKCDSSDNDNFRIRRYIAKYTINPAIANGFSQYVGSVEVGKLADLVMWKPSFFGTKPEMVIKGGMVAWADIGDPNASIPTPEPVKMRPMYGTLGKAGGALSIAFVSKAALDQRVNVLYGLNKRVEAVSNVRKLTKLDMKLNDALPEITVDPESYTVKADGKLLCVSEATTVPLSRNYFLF

With `Oc1cccc(-c2nc3ccccc3s2)c1` [BZT, 2-(3-Hydroxyphenyl) benzothiazole] the “amount of BZT lost (isothermal study)” value ([1]; 140° C., 40 minutes) was “about 0.26%” and the “onset of degradation (TGA)” value [1] was 255.1 °C.
In the case of `CCCCNP(N)(N)=S` [NBTPT, N-(n-butyl) thiophosphoric triamide], the “degradation under urea melt conditions” value [2] is given as “significant degradation” and the storage stability [3] is given as “unstable”.
In the case of `CCCCNP(N)(N)=S` [drawing 22], the pIC50 (urease) is listed as 7.00.
For `NP(N)(=O)Nc1ccccc1[N+](=O)[O-]`, the pIC50 (urease) is given as 8.52.
